Measured values taken from patent US20060004088A1, “Furan derivatives for preventing and curing osteoporosis and pharmaceutical compositions containing the same” (OCT INC., priority 2002, published 2006).
Entries after “also recorded” stand apart in the source; their conditions may differ.

What was measured:
[1] = system: transcriptional factor Runx2; assay: Runx2 expression, p6xOSE2-Luc luciferase assay in C2C12 cells; type: cell-based, mouse
Experimental: In the following tests, three kinds of cell lines were used. The human osteosarcoma cell lines, MG-63 (ATCC No. CRL-1427) and HOS (ATCC No. CRL-1543), and mouse muscle C2C12 muscle cells (ATCC No. CRL-1772) were purchased from ATCC (American Type Culture Collection, Rockville, USA), and cultured in Dulbecco's modified Eagle's medium (DMEM) supplemented with 10% fetal bovine serum (FBS).
Primarily, transient transfection was carried out using a p6xOSE2-Luc vector, which was prepared by inserting into a pGL3 promoter vector six tandem copies of the OSE2 motif, the binding site of the transcriptional factor Runx2 that is a critical regulator for osteoblast differentiation. Runx2 expression levels were determined by luciferase assay. The test procedure will be described in more detail, as follows.
C2C12 cells were plated onto 6-well plates at a density of 1(10^5 cells per well, and cultured for 24 hrs in a 5% CO2 incubator.
Then, the cells transiently transfected with the p6xOSE2-Luc vector using a transfection reagent, LipofectAmine, as follows. The plasmid DNA was reacted with the transfection reagent for 15 min to form p6xOSE2-Luc DNA:lipofectamine complexes. During this reaction, culture medium was removed from each well of the plates, the cells were washed with FBS-free DMEM, and 800 μl of FBS-free DMEM was added to each well. […]

[2] = system: osteoclast progenitor cells; assay: Formation of TRAP-positive multinucleated cells from osteoclast progenitors; type: cell-based, mice; settings: for No. of TRAP(+) multinucleated cells: M-CSF + RANKL, untreated control 132.80 ± 10.50; for number of TRAP-positive multinucleated cells in treated cultures: text summary, concentration not stated, control 132
Experimental: (§1) First, bone marrow cells were isolated, as follow. After sacrificing 7-9 week female mice by cervical dislocation, femur and tibia were excised aseptically while removing attached soft tissues. After cutting both ends of long bones, 1 ml of an enzyme solution, containing 0.1% collagenase (Gibco), 0.05% trypsin and 0.5 mM EDTA (Gibco), was injected to the bone marrow cavity at one end using a syringe with a 26-guage needle, and bone marrow was then collected. After shaking the recovered bone marrow for 30 min, bone marrow cells were collected, and cultured in α-minimum essential medium (α-MEM) supplemented with 10% FBS for 24 hrs. Then, non-adherent cells were collected, which are osteoclast pregenitors, aliquotted onto culture plates at a density of 2×10^5 cells per well, and cultured for 8 days in α-MEM supplemented with 20 ng/ml of macrophage-colony stimulating factor (M-CSF, Peprotech, USA) and 30 ng/ml RANKL (Peprotech, USA). During the 8 days of culturing, the cells were treated with the Compound 1. Thereafter, osteoclast formation was investigated by fixing the cultured cells and then carrying out TRAP staining, as described in the following Experimental Example 2.2. In addition, resorption activity of osteoclasts was investigated by measuring the absorption area after removing osteoclasts in cultures in calcium phosphate-coated plates, as described in Experimental Example 2.3, below.
After cell culture, the adherent cells were washed with PBS, and TRAP staining was performed, as follows. After being fixed with citrate-acetate-formaldehyde for 5 min, the cells were incubated for 1 hr in acetate buffer (prewarmed at 37° C., pH 5.0) containing naphthol AS-BI phosphate, fast Garnet GBC and 7 mM tartrate buffer (pH 5.0). TRAP-positive multinucleated cells having 3 or more nuclei were considered as osteoclasts.

osteoclasts = assay: Resorption activity of osteoclasts on calcium phosphate-coated plates (resorption pit area); type: cell-based, mice; settings: for Resorption activity of osteoclasts, %: control = 100; for area of resorption pits compared to the control: text summary, concentration not stated
Experimental: as §1
The differentiated osteoclasts were cultured on calcium phosphate-coated plates (OAASTM, OCT, Korea) in order to evaluate resorption activity of the cells. After removing culture medium, to remove the adherent cells, the plates were washed with distilled water three times, and incubated in 5% sodium hypochlorite for 5 min. After washing again with distilled water and drying the plates, the area of formed resorption pits was calculated by means of an Image Pro Plus software.

[3] = system: ovariectomized white mice with developed osteoporosis; assay: Therapeutic effect on osteoporosis, tibia histology; type: in vivo; settings: four weeks after ovariectomy, then oral 220 μl in 30 ml water for four weeks
Experimental: In order to evaluate effects of the compound of the present invention on treatment and prevention of osteoporosis, female white mice with osteoporosis induced by ovariectomy were used as a disease model. After ovariectomy, mice were administered with the compound of the present invention. Tibias were dissected from the mice, and observed histologically.
In order to evaluate therapeutic effect of the Compound 1 on osteoporosis, after ovariectomy, the mice were fed with solid feedstuff for four weeks. After checking progress of osteoporosis in the mice, a test group was administered with the Compound 1 for four weeks, according to the same method as described above, while a control group was fed with only solid feedstuff. Eight weeks after ovariectomy, tibia tissue specimens were prepared according to a method known the art.
The tibia tissue specimens prepared in the Experimental Example 3-2 were fixed in a Bouin's solution for about 24 hrs. Then, the tibia tissue specimens were decalcificated with 5% nitric acid for about 60 hrs in order to remove inorganic substances including calcium from the tibias, thus softening the tibias to the degree suitable for fracture. […]

SMILES: O=Cc1ccc(CO)o1 [Compound 1, 5-hydroxymethylfuran-2-carboxyaldehyde]
- effect on activity of Runx2 (in words) [1]: increase the activity of Runx2
- No. of TRAP(+) multinucleated cells ([2]; 10^−4 M Compound 1, 8 days): 77.20 ± 6.73
- No. of TRAP(+) multinucleated cells ([2]; 10^−5 M Compound 1, 8 days): 108.20 ± 4.57
- No. of TRAP(+) multinucleated cells ([2]; 10^−6 M Compound 1, 8 days): 103.60 ± 6.95
- No. of TRAP(+) multinucleated cells ([2]; 10^−7 M Compound 1, 8 days): 120.00 ± 6.42
- No. of TRAP(+) multinucleated cells ([2]; 10^−8 M Compound 1, 8 days): 105.20 ± 8.58
- number of TRAP-positive multinucleated cells in treated cultures [2]: 77
- number of TRAP-positive multinucleated cells in treated cultures ([2]; listed as Example 1): remarkably reduced
- Resorption activity of osteoclasts, % (osteoclasts; 10^−4 M Compound 1, area of resorption pits): 52.34 ± 8.28%
- Resorption activity of osteoclasts, % (osteoclasts; 10^−5 M Compound 1, area of resorption pits): 46.92 ± 3.60%
- Resorption activity of osteoclasts, % (osteoclasts; 10^−6 M Compound 1, area of resorption pits): 41.75 ± 14.07%
- Resorption activity of osteoclasts, % (osteoclasts; 10^−7 M Compound 1, area of resorption pits): 61.46 ± 10.35%
- Resorption activity of osteoclasts, % (osteoclasts; 10^−8 M Compound 1, area of resorption pits): 66.03 ± 7.49%
- area of resorption pits compared to the control (osteoclasts): about 50%
- area of resorption pits compared to the control (osteoclasts; listed as Example 1): inhibit bone resorption activity of osteoclasts
- trabecular bone density, histology [3]: just a slight decrease in trabecular bone density; also recorded: no trabecular bone loss
